The values below come from patent US20030194377A1, “Therapeutic uses of BPI protein products in cystic fibrosis patients” (priority 1996, published 2003).

The test system of test [1] is Pseudomonas aeruginosa strain isolated from a sputum sample from a CF patient. Nature of the test: Dade MicroScan gram-negative panels supplemented with rBPI21. Format: cell-based. Conditions: for change of susceptibility to antibiotic: in combination with rBPI21 formulated with 0.2% poloxamer 403; for change of antibiotic MIC: in combination with rBPI21 formulated with 0.2% poloxamer 403, versus poloxamer 188 formulation; for susceptibility of the strain to combination of rBPI21 and antibiotic: supplemented with 16 μg/mL rBPI21 formulated with 0.2% poloxamer 188.

The test system of the next test is autoantibodies to BPI. The following applies: adult CF patients, Zhao et al. 1996; cited from earlier work.
The test system of another test is anti-BPI antibodies. As to the kind of experiment: enzyme immunoassay of BPI antibody titers in plasma samples from cystic fibrosis patients. It counts as binding, human. Conditions: 11 CF patient plasma samples, dilutions 1/100 to 1/12,800; protein coated as antigen. How it is done:
Plasma samples from 11 cystic fibrosis (CF) patients were tested for the presence of anti-BPI antibodies as follows. BPI holoprotein (rBPI) or an N-terminal BPI protein product (rBPI21) were used as antigen sources in an enzyme immunoassay. The wells of Immulon 2 microtiter plates (Dynatech Laboratories Inc., Chantilly, Va.) were coated overnight at 2-8° C. with 50 uL of rBPI21 (0.5 μg/mL) or rBPI (1 μg/mL) diluted in phosphate buffered saline, pH 7.2 (PBS). Unbound BPI was removed and 200 μL of PBS containing 0.1% human serum albumin and 0.1% goat serum was added to all wells. After blocking the plates for 1 hour at room temperature, the wells were washed 3 times with 300 μL of wash buffer (PBS/0.5% Tween 20). Plasma samples were prepared as serial two-fold dilutions from 1/100 to 1/12,800. Plasma samples were diluted in triplicate with PBS containing 1% bovine serum albumin, 1% goat serum and 0.05% Tween 20 (PBS-BSA-GS/Tween). […] The absorbance at 405 nm (A405) was determined for all wells using a Vmax Plate Reader (Molecular Devices Corp., Menlo Park, Calif.).
The mean A405 for all samples were corrected for background by subtracting the mean A405 of wells receiving sample dilution buffer (no plasma) in the primary incubation step. […] An absorbance greater than 0.05 units was considered to be above background.

In the case of `CC1(C)S[C@@H]2[C@H](NC(=O)[C@H](NC(=O)N3CCNC3=O)c3ccccc3)C(=O)N2[C@H]1C(=O)O` [azlocillin], the “change of susceptibility to antibiotic” value in test [1] is “increased susceptibity”. With `C[C@H]1[C@H](NC(=O)/C(=N\OC(C)(C)C(=O)O)c2csc(N)n2)C(=O)N1S(=O)(=O)O` [aztreonam], in test [1], the “change of antibiotic MIC” value is “further decreased the MICs”; the “susceptibility of the strain to combination of rBPI21 and antibiotic” value (from here on “susceptibility of the strain”) was “susceptible”.

As to `CC1(C)S[C@@H]2[C@H](NC(=O)C(C(=O)O)c3ccccc3)C(=O)N2[C@H]1C(=O)O` (stereo partly shown) [carbenicilin], the “susceptibility of the strain” value in test [1] is given as “susceptible”.

Turning to `O=C(N[C@H](CO)[C@H](O)c1ccc([N+](=O)[O-])cc1)C(Cl)Cl` [chloramphenicol], the “change of susceptibility to antibiotic” value in test [1] was “increased susceptibity”. For the molecule `O=C(O)c1cn(C2CC2)c2cc(N3CCNCC3)c(F)cc2c1=O` [ciprofloxacin], in test [1], the “change of antibiotic MIC” value is recorded as “further decreased the MICs”; the “susceptibility of the strain” value is listed as “susceptible”.

Consider `CCN[C@@H]1C[C@H](N)[C@@H](O[C@H]2OC(CN)=CC[C@H]2N)[C@H](O)[C@H]1O[C@H]1OC[C@](C)(O)[C@H](NC)[C@H]1O` [netilmicin], for which the “change of susceptibility to antibiotic” value in test [1] is given as “increased susceptibity”. For the molecule `NC[C@H]1O[C@H](O[C@H]2[C@H](O)[C@@H](O[C@H]3O[C@H](CO)[C@@H](O)[C@H](N)[C@H]3O)[C@H](N)C[C@@H]2N)[C@H](N)C[C@@H]1O` [tobramycin], in test [1], the “susceptibility of the strain” value is recorded as “susceptible”.

For the molecule Augmentin, the “change of susceptibility to antibiotic” value in test [1] is recorded as “increased susceptibity”. Turning to sulfamethoxazole/trimethoprim, the “susceptibility of the strain” value in test [1] is on record as “susceptible”.

B1: BPI: bactericidal/permeability-increasing protein isolated from granules of polymorphonuclear leukocytes (protein, UniProt P17213 32-487, looked up)
Bactericidal …: VNPGVVVRISQKGLDYASQQGTAALQKELKRIKIPDYSDSFKIKHLGKGHYSFYSMDIREFQLPSSQISMVPNVGLKFSISNANIKISGKWKAQKRFLKMSGNFDLSIEGMSISADLKLGSNPTSGKPTITCSSCSSHINSVHVHISKSKVGWLIQLFHKKIESALRNKMNSQVCEKVTNSVSSELQPYFQTLPVMTKIDSVAGINYGLVAPPATTAETLDVQMKGEFYSENHHNPPPFAPPVMEFPAAHDRMVYLGLSDYFFNTAGLVYQEAGVLKMTLRDDMIPKESKFRLTTKFFGTFLPEVAKKFPNMKIQIHVSASTPPHLSVQPTGLTFYPAVDVQAFAVLPNSSLASLFLIGMHTTGSMEVSAESNRLVGELKLDRLLLELKHSNIGPFPVELLQDIMNYIVPILVLPRVNEKLQKGFPLPTPARVQLYNVVLQPHQNFLLFGADVVYK
Consider B1, for which the “sera with autoantibodies to BPI” value in the test on autoantibodies to BPI is listed as 60/66.

B2: rBPI: recombinant BPI holoprotein (protein, UniProt P17213 32-487, looked up)
Bactericidal …: VNPGVVVRISQKGLDYASQQGTAALQKELKRIKIPDYSDSFKIKHLGKGHYSFYSMDIREFQLPSSQISMVPNVGLKFSISNANIKISGKWKAQKRFLKMSGNFDLSIEGMSISADLKLGSNPTSGKPTITCSSCSSHINSVHVHISKSKVGWLIQLFHKKIESALRNKMNSQVCEKVTNSVSSELQPYFQTLPVMTKIDSVAGINYGLVAPPATTAETLDVQMKGEFYSENHHNPPPFAPPVMEFPAAHDRMVYLGLSDYFFNTAGLVYQEAGVLKMTLRDDMIPKESKFRLTTKFFGTFLPEVAKKFPNMKIQIHVSASTPPHLSVQPTGLTFYPAVDVQAFAVLPNSSLASLFLIGMHTTGSMEVSAESNRLVGELKLDRLLLELKHSNIGPFPVELLQDIMNYIVPILVLPRVNEKLQKGFPLPTPARVQLYNVVLQPHQNFLLFGADVVYK
Consider B2, for which the “plasma samples with detectable immune response (A405>0.05)” value in the test on anti-BPI antibodies is given as 7/11.
